According to PubChem BioAssay AID2060885 (Molecular Pharmacology Branch, DTP, NCI, 2025):

System: NCI-H23 complex spheroids with HUVEC/MSC, viability
Assay: Anticancer human tumor NCI-H23 cell line growth inhibition [RAS];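 as to viability, T/C: 100% = DMSO vehicle control viability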
Details: for IC50: curve of first compound; for viability, T/C: stronger effect = lower value
Description: RAS pathway inhibitors in Combinations in Complex Spheroids
A high-throughput screen of multi-cell type tumor spheroids was designed to identify active combinations of RAS pathway inhibitors and targeted small molecules. Complex spheroids include a stromal component modeled by human endothelial cells (HUVEC) and fibroblasts modeled by human mesenchymal stem cells (MSCs). The concentration ranges selected for each drug and investigational agent were based upon clinically achievable concentrations if the clinical Cmax of the agent was known.
Compounds. The drugs and investigational agents: abemaciclib (NSC768073), cobimetinib (NSC768068), divarasib (GDC6063, NSC841802), docetaxel (NSC628503), GDC-1971 (RLY-1971, NSC841576), gemcitabine (NSC613327), inavolisib (NSC800729), ipatasertib (NSC767898), KB-0742 (NSC834161), MRTX-1133 (NSC836407), osimertinib (NSC779217), RMC-4630 (NSC839698), RMC-6236 (NSC851965), RMC-6291 (NSC852671), Ro-3306 (NSC812927), sapanisertib (NSC764658), SN-38 (NSC673596), staurosporine (NSC755774), SY5609 (NSC837396), and tovorafenib (DAY101, NSC766906), were obtained from the National Cancer Institute (NCI) Developmental Therapeutics Program Chemical Repository. The FDA-approved anticancer drug set is available from the NCI Developmental Therapeutics Program. […] The stock solutions were prepared in dimethyl sulfoxide (DMSO, Sigma-Aldrich, St. Louis, MO, cat. D2650) at 800-fold the tested concentration and stored at -70 degrees C prior to their use. All drugs and investigational agents were tested over a range starting from a high concentration at or near the clinical Cmax and decreasing in half-log increments. If the clinical Cmax for an agent had not been determined, the highest concentration tested was 10 microM.
Cell Culture. All cells were maintained in an incubator at 37 degrees C and 5% CO2 with 95% humidity. The PDC lines were cultured according to standard operating procedures established by the NCI PDMR. All PDCs were thawed and cultured in Matrigel-coated flasks prepared with a working solution of 1X Ham's F-12 nutrient mix, without supplementation (Invitrogen, Waltham, MA, cat. 11765054), 100 U/mL penicillin-streptomycin (Invitrogen, cat. 15140122), and 2.5% Matrigel (Corning Inc., Corning, NY, cat. 354248) for the first three passages. The 362531-283-R-J2-PDC and 782815-120-R-J1-PDC lines were cultured in 6C/Colon 1B media, which includes advanced DMEM/F-12 (Thermo Fisher Scientific, cat. 12634028), 10 mM HEPES (Thermo Fisher Scientific, cat. 15630080), 1X GlutaMAX supplement (Thermo Fisher Scientific, cat. 35050061), 0.1 mg/mL primocin (InvivoGen, San Diego, CA, cat. ant-pm-2), 10% defined fetal bovine serum, heat inactivated (HyClone Laboratories Inc., Logan, UT, cat. SH30070.03HI), 50% L-WRN conditioned media (ATCC, cat. CRL-3276), 1.25 mM N-Acetyl-L-cysteine (Sigma-Aldrich, cat. A9165), 10 mM nicotinamide (Sigma-Aldrich, cat. N0636), 1X B-27 supplement (Thermo Fisher Scientific, cat. 17504044), 1X N-2 supplement (Thermo Fisher Scientific, cat. 17502048), 50 ng/mL human EGF (Thermo Fisher Scientific, cat. PHG0311), and 10 microM Y-27632 dihydrochloride (Tocris Bioscience, cat. 1254). The K12877-001-R-J1-PDC line was cultured in 6I media, which includes all 6C/Colon 1B media plus 10 ng/mL human FGF-10 (PeproTech, cat. 100-26), 1 ng/mL human FGF-2 (PeproTech, cat. 100-18B), 1 µM prostaglandin E2 (Tocris Bioscience, cat. 2296), […] hydrocortisone (Sigma-Aldrich, cat. H4001), and […] bovine insulin (Sigma-Aldrich, cat. I6634). The K86415-001-R-J1-PDC line was cultured in 6D media, which includes all 6C/Colon 1B media components minus the L-WRN conditioned media. The 485176-168-R4-J1-PDC was cultured in PANC media, which includes all 6C/Colon 1B media plus 100 ng/mL human FGF-10 (PeproTech, cat. 100-26), 500 nM SB-431542 (Selleckchem, cat. S1067), and 10 nM gastrin (Tocris Bioscience, cat. 3006). […]

[1] = second compound 0.0316 µM, first compound 0.0316 µM
[2] = second compound 0.0316 µM, first compound 0.1 µM
[3] = second compound 0.0316 µM, first compound 0.316 µM
[4] = second compound 0.0316 µM, first compound 1 µM
[5] = second compound 0.0316 µM, first compound 3.16 µM
[6] = second compound 0.0316 µM, first compound 10 µM
[7] = second compound 0.1 µM, first compound 0.0316 µM
[8] = second compound 0.1 µM, first compound 0.1 µM
[9] = second compound 0.1 µM, first compound 0.316 µM
[10] = second compound 0.1 µM, first compound 1 µM
[11] = second compound 0.1 µM, first compound 3.16 µM
[12] = second compound 0.1 µM, first compound 10 µM
[13] = second compound 0.316 µM, first compound 0.0316 µM
[14] = second compound 0.316 µM, first compound 0.1 µM
[15] = second compound 0.316 µM, first compound 0.316 µM
[16] = second compound 0.316 µM, first compound 1 µM
[17] = second compound 0.316 µM, first compound 3.16 µM
[18] = second compound 0.316 µM, first compound 10 µM
[19] = second compound 1 µM, first compound 0.0316 µM
[20] = second compound 1 µM, first compound 0.1 µM
[21] = second compound 1 µM, first compound 0.316 µM
[22] = second compound 1 µM, first compound 1 µM
[23] = second compound 1 µM, first compound 3.16 µM
[24] = second compound 1 µM, first compound 10 µM
[25] = second compound 3.16 µM, first compound 0.0316 µM
[26] = second compound 3.16 µM, first compound 0.1 µM
[27] = second compound 3.16 µM, first compound 0.316 µM
[28] = second compound 3.16 µM, first compound 1 µM
[29] = second compound 3.16 µM, first compound 3.16 µM
[30] = second compound 3.16 µM, first compound 10 µM
[31] = second compound 10 µM, first compound 0.0316 µM
[32] = second compound 10 µM, first compound 0.1 µM
[33] = second compound 10 µM, first compound 0.316 µM
[34] = second compound 10 µM, first compound 1 µM
[35] = second compound 10 µM, first compound 3.16 µM
[36] = second compound 10 µM, first compound 10 µM

For `CC1(O)CCCC1n1c(=O)c(C(F)F)cc2cnc(NC3CCN(S(C)(=O)=O)CC3)nc21` (stereo unspecified) + C#Cc1c(F)ccc2cc(O)cc(-c3ncc4c(N5CC6CCC(C5)N6)nc(OCC56CCCN5CC(F)C6)nc4c3F)c12, the IC50 (second compound 0.0316 µM) was 5.49 µM, the IC50 (second compound 0.1 µM) was 5.24 µM and the IC50 (second compound 0.316 µM) was 4.83 µM. It also gave an IC50 (second compound 1 µM) of 3.91 µM, an IC50 (second compound 3.16 µM) of under 0.0316 µM and an IC50 (second compound 10 µM) of under 0.0316 µM. The viability, T/C [1] was 93.3%, the viability, T/C [2] was 92.8% and the viability, T/C [3] was 75.2%. It also gave a viability, T/C [4] of 80.1%, a viability, T/C [5] of 81.7% and a viability, T/C [6] of 15.6%. It also gave a viability, T/C [7] of 90.2%, a viability, T/C [8] of 87.4% and a viability, T/C [9] of 58.7%. It also gave a viability, T/C [10] of 77.3%, a viability, T/C [11] of 76.4% and a viability, T/C [12] of 16.3%. It also gave a viability, T/C [13] of 86.5%, a viability, T/C [14] of 74.1% and a viability, T/C [15] of 58%. It also gave a viability, T/C [16] of 65%, a viability, T/C [17] of 72.2% and a viability, T/C [18] of 13.7%. For the same molecule, the viability, T/C [19] was 62.6%, the viability, T/C [20] was 66.1% and the viability, T/C [21] was 46.6%. For the same molecule, the viability, T/C [22] was 52.7%, the viability, T/C [23] was 66.3% and the viability, T/C [24] was 10.9%. It also gave a viability, T/C [25] of 48.3%, a viability, T/C [26] of 40.2% and a viability, T/C [27] of 34.7%. It also gave a viability, T/C [28] of 40%, a viability, T/C [29] of 42% and a viability, T/C [30] of 7.05%. For the same molecule, the viability, T/C [31] was 32.6%, the viability, T/C [32] was 28.3% and the viability, T/C [33] was 24.9%. For the same molecule, the viability, T/C [34] was 27.6%, the viability, T/C [35] was 29.6% and the viability, T/C [36] was 2.78%.

Work on `CCN1CCN(Cc2ccc(Nc3ncc(F)c(-c4cc(F)c5nc(C)n(C(C)C)c5c4)n3)nc2)CC1` + C#Cc1c(F)ccc2cc(O)cc(-c3ncc4c(N5CC6CCC(C5)N6)nc(OCC56CCCN5CC(F)C6)nc4c3F)c12 yielded an IC50 (second compound 0.0316 µM) of over 1 µM, an IC50 (second compound 0.1 µM) of over 1 µM and an IC50 (second compound 0.316 µM) of 0.0895 µM. It also gave an IC50 (second compound 1 µM) of 0.0562 µM, an IC50 (second compound 3.16 µM) of 0.0122 µM and an IC50 (second compound 10 µM) of under 0.00316 µM. For the same molecule, the viability, T/C (second compound 0.0316 µM, first compound 0.00316 µM) was 105%, the viability, T/C (second compound 0.0316 µM, first compound 0.01 µM) was 102% and the viability, T/C [1] was 79%. For the same molecule, the viability, T/C [2] was 61.8%, the viability, T/C [3] was 61.2% and the viability, T/C [4] was 60.9%. It also gave a viability, T/C (second compound 0.1 µM, first compound 0.00316 µM) of 104%, a viability, T/C (second compound 0.1 µM, first compound 0.01 µM) of 108% and a viability, T/C [7] of 70%. The viability, T/C [8] was 56.8%, the viability, T/C [9] was 50.9% and the viability, T/C [10] was 52.2%. The viability, T/C (second compound 0.316 µM, first compound 0.00316 µM) was 94.2%, the viability, T/C (second compound 0.316 µM, first compound 0.01 µM) was 109% and the viability, T/C [13] was 71.8%. It also gave a viability, T/C [14] of 51.4%, a viability, T/C [15] of 48.4% and a viability, T/C [16] of 43.3%. The viability, T/C (second compound 1 µM, first compound 0.00316 µM) was 81.2%, the viability, T/C (second compound 1 µM, first compound 0.01 µM) was 75% and the viability, T/C [19] was 56.6%. For the same molecule, the viability, T/C [20] was 42.6%, the viability, T/C [21] was 40.4% and the viability, T/C [22] was 34.7%. It also gave a viability, T/C (second compound 3.16 µM, first compound 0.00316 µM) of 54.5%, a viability, T/C (second compound 3.16 µM, first compound 0.01 µM) of 53.3% and a viability, T/C [25] of 37.9%. The viability, T/C [26] was 29%, the viability, T/C [27] was 30% and the viability, T/C [28] was 22.8%. For the same molecule, the viability, T/C (second compound 10 µM, first compound 0.00316 µM) was 30.3%, the viability, T/C (second compound 10 µM, first compound 0.01 µM) was 39.5% and the viability, T/C [31] was 26.5%. The viability, T/C [32] was 21.1%, the viability, T/C [33] was 22.2% and the viability, T/C [34] was 21%.

Work on `C[C@@H](NC(=O)c1ncnc(N)c1Cl)c1ncc(C(=O)Nc2cc(C(F)(F)F)c(Cl)cn2)s1` + C#Cc1c(F)ccc2cc(O)cc(-c3ncc4c(N5CC6CCC(C5)N6)nc(OCC56CCCN5CC(F)C6)nc4c3F)c12 yielded an IC50 (second compound 0.0316 µM) of over 10 µM, an IC50 (second compound 0.1 µM) of over 10 µM and an IC50 (second compound 0.316 µM) of over 10 µM. It also gave an IC50 (second compound 1 µM) of over 10 µM, an IC50 (second compound 3.16 µM) of over 10 µM and an IC50 (second compound 10 µM) of under 0.0316 µM. It also gave a viability, T/C [1] of 110%, a viability, T/C [2] of 112% and a viability, T/C [3] of 98.9%. The viability, T/C [4] was 99.9%, the viability, T/C [5] was 92.3% and the viability, T/C [6] was 66.5%. For the same molecule, the viability, T/C [7] was 103%, the viability, T/C [8] was 110% and the viability, T/C [9] was 105%. The viability, T/C [10] was 99.5%, the viability, T/C [11] was 91.8% and the viability, T/C [12] was 66.2%. The viability, T/C [13] was 104%, the viability, T/C [14] was 110% and the viability, T/C [15] was 106%. It also gave a viability, T/C [16] of 99.4%, a viability, T/C [17] of 85.6% and a viability, T/C [18] of 74.4%. For the same molecule, the viability, T/C [19] was 90.3%, the viability, T/C [20] was 96.2% and the viability, T/C [21] was 93.1%. For the same molecule, the viability, T/C [22] was 86.1%, the viability, T/C [23] was 83.3% and the viability, T/C [24] was 60.7%. For the same molecule, the viability, T/C [25] was 67.2%, the viability, T/C [26] was 69.3% and the viability, T/C [27] was 60.8%. For the same molecule, the viability, T/C [28] was 56.9%, the viability, T/C [29] was 53.6% and the viability, T/C [30] was 52.5%. It also gave a viability, T/C [31] of 38.7%, a viability, T/C [32] of 49.5% and a viability, T/C [33] of 46.3%. It also gave a viability, T/C [34] of 41.1%, a viability, T/C [35] of 48.1% and a viability, T/C [36] of 38.3%.
